Patent US10875847B2, “Aminopyrazoles as selective janus kinase inhibitors” (Intervet Inc., priority 2016, dated 2020)
Where two headings read alike, the source gives them in different places. Blank lines part the entries; values can stand above or below the compound they belong to.

Columns and labels:
[1] = system: Erythropoietin (EPO)—JAK2-STAT5 Pathway; assay: EPO CellSensor cell pathway engagement assay (irf1-bla TF-1 cells); assay type: cell-based; conditions: Homo sapiens, Table 1
Description: In brief, CellSensor® cell lines (see details below for each assay) carrying a stably integrated β-Lactamase reporter gene under control of specific cis-regulatory STAT elements responsive to the pathway being monitored were pre-treated with test compounds serially diluted in DMSO (see preparation and dosing of compounds and agonist cytokines section). […] Incubation with compounds, cytokines and LiveBLAzer™ were carried out at 37° C. in a tissue culture incubator maintained at 90% humidity and 5% CO2.
CellSensor irf1-bla TF-1 cells carry a stably integrated β-Lactamase reporter gene under control of the STAT5 Response Elements present in the Interferon Regulatory Factor I (IRF1) gene promoter.

JAK1 = JAK1 (Homo sapiens (Human), UniProt P23458); assay: Jak biochemical HTRF enzyme assay, JAK1
Chain of JAK1 (P23458 875-1153): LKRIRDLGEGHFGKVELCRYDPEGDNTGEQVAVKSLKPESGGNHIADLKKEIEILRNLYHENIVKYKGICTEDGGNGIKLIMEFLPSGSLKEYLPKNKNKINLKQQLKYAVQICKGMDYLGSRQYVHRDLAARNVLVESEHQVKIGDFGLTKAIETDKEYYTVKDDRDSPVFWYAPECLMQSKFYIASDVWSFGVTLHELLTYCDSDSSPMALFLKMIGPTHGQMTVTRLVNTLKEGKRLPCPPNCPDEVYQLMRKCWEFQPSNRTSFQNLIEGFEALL

[2] = 6-week pilot target animal safety study; conditions: for NOAEL at 6 weeks: dog, in vivo, po
Description: The drug was administered orally, as a compressed tablet, twice per day for 6 weeks to dogs at 1, 3, and 5 times the maximum exposure dose of 0.5 mg/kg, or once per day for 6 weeks to dogs at 5 times the maximum exposure dose of 1 mg/kg.

[3] = Dog pharmacokinetics after IV administration; conditions: in vivo, 0.25 mg/kg I.V.
Description: Examples of the instant invention were evaluated in JAK1, JAK2, and JAK3 in vitro binding assays, and IL-6 and EPO cell pathway engagement assays, as described above. Table 1 tabulates the IC50 values of the instant invention in the JAK1, JAK2, and JAK3 in the in vitro binding assays, and the IL-6 and EPO cell pathway engagement assays, as well as the ratio of the JAK2/JAK1 IC50s, JAK3/JAK1 IC50s, and the EPO/IL-6 IC50s. Table 2 tabulates the pharmacokinetic parameters of the instant invention in the dog after IV administration.

JAK3 = JAK3 (Homo sapiens (Human), UniProt P52333); assay: Jak biochemical HTRF enzyme assay, JAK3; conditions: Table 1
Chain of JAK3 (P52333 822-1111): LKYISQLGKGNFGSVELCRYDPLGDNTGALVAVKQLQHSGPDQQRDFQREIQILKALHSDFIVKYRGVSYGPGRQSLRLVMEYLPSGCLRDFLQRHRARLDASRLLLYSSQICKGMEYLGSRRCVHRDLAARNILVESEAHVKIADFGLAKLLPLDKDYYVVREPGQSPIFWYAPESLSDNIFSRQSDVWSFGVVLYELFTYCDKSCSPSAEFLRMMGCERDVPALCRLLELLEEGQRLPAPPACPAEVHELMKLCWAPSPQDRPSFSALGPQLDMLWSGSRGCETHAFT
From the text: Jak Biochemical HTRF Enzyme Assay Protocol
The ability of compounds to inhibit the catalytic activity of JAK1, JAK2, JAK3, and TYK2 was quantified using a recombinant purified GST-tagged catalytic domain for each enzyme (InVitrogen/Life Technologies/ThermoFisher, catalogue #s: JAK1, #M4290; […]) in an HTRF format biochemical assay. […] Subsequent reagent additions employed an Agilent Bravo automated liquid handler. […] After normalization to untreated controls, the percent inhibition of the HTRF signal at each compound concentration was calculated. The plot of percent inhibition versus the log value of compound concentration was done as described above for cell assays to calculate IC50 values.

[4] = system: Interleukin 6 (IL6)—JAK1/JAK2-STAT4 Pathway; assay: IL6 CellSensor cell pathway engagement assay (SIE-bla ME-180 cells); conditions: for IC50: Homo sapiens; for EPO/IL-6: Table 3, comparative examples
From the text: Inhibition of the activity of JAK1 and JAK2 kinases in intact cells was quantified in antagonist mode using CellSensor® transcriptional reporter technology (Life Technologies/ThermoFisher: https://www.thermofisher.com/us/en/home/industrial/pharma-biopharma/drug-discovery-development/target-and-lead-identification-and-validation/pathway-biology/cellular-pathway-analysis/cellsensor-cell-lines.html), in two independent cell lines engineered to detect IL4, IL6 and EPO signaling. In brief, CellSensor® cell lines (see details below for each assay) carrying a stably integrated β-Lactamase reporter gene under control of specific cis-regulatory STAT elements responsive to the pathway being monitored were pre-treated with test compounds serially diluted in DMSO (see preparation and dosing of compounds and agonist cytokines section). […] Incubation with compounds, cytokines and LiveBLAzer™ were carried out at 37° C. in a tissue culture incubator maintained at 90% humidity and 5% CO2.
Interleukin 6 (IL6)—JAK1/JAK2-STAT4 Pathway:
CellSensor™ SIE-bla ME-180 cells carrying a stably integrated β-Lactamase reporter gene under control of the Sis-Inducible Element (SIE).
Each CellSensor® cell line was subsequently plated as per supplier's instructions (30,000 cells in 32 μL/well) and mixed with compound. Following a 60 minute incubation cells were subsequently stimulated by addition of 8 μL of cognate cytokine (EC80 dose of IL6 and EPO) and incubated for an additional 3 hours, before adding LiveBLAzer™-FRET B/G substrate.

cIL-31 induced pruritus = assay: IL-31 induced itching model; assay type: in vivo, Beagle dogs
[5] = IL-31 induced itching model; assay type: in vivo, Beagle dogs; conditions: dog, in vivo, 1 mg/kg body weight; Beagle dogs, dosing before cIL-31 challenge; read-out: approximate Tmax
[6] = dogs with allergic or atopic dermatitis; cited from earlier work
[7] = dogs, higher doses; cited from earlier work
[8] = dogs, oral, 6 weeks, up to 5 times maximum exposure dose
[9] = ME-180, read-out: IL-6 IC50 (nM)
[10] = 0.5 mg/kg body weight, second study

SMILES: COc1cc(Nc2nn([C@H]3COCC[C@@H]3C#N)cc2C(N)=O)cc(F)n1 (single isomer, unassigned) [Compound 1, 1-((3R,4S) or (3S,4R)-4-cyanotetrahydro-2H-pyran-3-yl)-3-((2-fluoro-6-methoxypyridin-4-yl)amino)-1H-pyrazole-4-carboxamide]
IC50 [1]: 460 nM
IC50 (JAK1): 0.43 nM
NOAEL at 6 weeks [2]: 2.5 mg/kg
NOAEL at 6 weeks ([2]; 5 mg/kg once per day): 5 mg/kg/day
test article related effects in clinical observations, fecal observations, body weight, food consumption, physical examination, blood pressure, ophthalmology, cardiology [2, 8]: No test article related effects were observed
test article related effects in postmortem evaluations (organ weights, macroscopic and microscopic findings) [2, 8]: No test article related effects were observed
AUC [3]: 1.29 µM·h
clearance [3]: 9.42 mL/min/kg
half-life [3]: 4.38 h
Vd ([3]; read-out: Vdss): 1.95 L/kg
IC50 (JAK3): 1130 nM
IC50 [4, 9]: 41.8 nM
suppression of cIL-31 induced pruritus (cIL-31 induced pruritus; 0.05 mg/kg body weight (sentence prints 0.5), second study): not
suppression of cIL-31 induced pruritus (cIL-31 induced pruritus; 0.1 mg/kg body weight, second study): not
magnitude of effect compared with Apoquel (cIL-31 induced pruritus; [10]): similar
suppression of cIL-31 induced pruritus (cIL-31 induced pruritus; [10]): significantly suppressed
suppression of cIL-31 induced pruritus (cIL-31 induced pruritus; 1 mg/kg body weight, dosed 2 h prior to cIL-31 challenge, first study): significantly suppressed
magnitude of pruritus suppression compared with Apoquel (cIL-31 induced pruritus; 1 mg/kg body weight, first study): similar
Tmax [5]: ~2 h

IC50 (JAK1; Table 3, comparative examples): 1.67 nM
SMILES: CN(C)[C@H]1CC[C@H](n2cc(C(N)=O)c(Nc3ccc(Cl)cc3)n2)[C@@H](C#N)C1 (single isomer, unassigned) [Reference Compound A, 3-[(4-chlorophenyl)amino]-1-[(1S,2S,4S or 1R,2R,4R)-2-cyano-4-(dimethylamino)cyclohexyl]-1H-pyrazole-4-carboxamide]

SMILES: CS(=O)(=O)c1ccc(Nc2nn([C@H]3CCCC[C@@H]3C#N)c3cc[nH]c(=O)c23)cc1 [B, (1S,2S)-2-(3-{[4-(methylsulfonyl)phenyl]amino}-4-oxo-4,5-dihydro-1H-pyrazolo[4,3-c]pyridin-1-yl)cyclohexanecarbonitrile]
potency in IL6 CellSensor assay relative to EPO CellSensor assay ([4]; IL6 versus EPO assay): within two-three fold

IC50 [1]: 9480 nM
IC50 (JAK1; Table 1): 17.7 nM
IC50 (JAK3): > 1250 nM
IC50 [4, 9]: 2440 nM
SMILES: COc1cc(Nc2nn([C@@H]3COCC[C@H]3C#N)cc2C(N)=O)cc(F)n1 [Enantiomer of 1]

IC50 (JAK1; Table 3, comparative examples): 0.3 nM
JAK2/1 (JAK1; Table 3, comparative examples): 10x
IC50 ([4]; ME-180, read-out: IL-6 IP (nM)): 97 nM
SMILES: N#CCC1(n2cc(-c3ncnc4[nH]ccc34)cn2)CN(C2CCN(C(=O)c3ccnc(C(F)(F)F)c3F)CC2)C1 [INCB39110]
EPO/IL-6 [4]: 5x

SMILES: N#CC[C@H](C1CCCC1)n1cc(-c2ncnc3[nH]ccc23)cn1 [JAKAFI]
JAK2/1 (JAK1): 0.7x
IC50 ([4]; ME-180, read-out: IL-6 IP (nM)): 40 nM
EPO/IL-6 [4]: 0.2x

SMILES: CNS(=O)(=O)C[C@H]1CC[C@H](N(C)c2ncnc3[nH]ccc23)CC1 [Oclacitinib]
IC50 (JAK1; Table 3, comparative examples): 3.4 nM
JAK2/1 (JAK1; Table 3, comparative examples): 2.0x
IC50 ([4]; ME-180, read-out: IL-6 IP (nM)): 230 nM
EPO/IL-6 [4]: 2.4x
effect on pruritus and lesions [6]: rapid amelioration of pruritus and reduces lesions
effect on hematocrit, hemoglobin and reticulocyte counts [7]: reduction
